{"source": "patent US20250049023A1", "about": "“FUNGICIDAL COMPOSITIONS” (SYNGENTA CROP PROTECTION AG, priority 2021, published 2025)", "origin": "cited, not measured here", "system": "Mycosphaerella graminicola (Septoria tritici)", "settings": "as disclosed in prior filings", "data": [{"smiles": "COc1ccnc(C(=O)N[C@@H](C)C(=O)O[C@@H](C)C(c2ccc(F)cc2)c2ccc(F)cc2)c1OC(C)=O", "note": "[Florylpicoxamid, (1S)-2,2-bis(4-fluorophenyl)-1-methylethyl N-{[3-(acetyloxy)-4-methoxy-2-pyridyl]carbonyl}-L-alaninate]", "values": [{"measurement": "control of wheat leaf blotch disease (in words)", "result": "particularly effective"}]}]}
